Data taken from patent US10578608B1, “Tools to detect, track and target cancer cells in vivo” (The Regents of the University of California, priority 2015, dated 2020).
“Also recorded” adds a separate entry of the source. Structures can show the parent of a compound that is named as a salt. k = constrained ethyl (cEt); d = 2'-deoxy (DNA)

What was measured:
MSI1 RNA = assay: MSI1 expression after ASO free uptake (q-RT-PCR); format: cell-based, human; conditions: 24 hours, MIA PaCa-2 cells
Experimental: (FIG. 8 F to FIG. 8H) Real time PCR analysis of Msi expression following ASO free uptake in MIA PaCa-2 cells. MIA PaCa-2 cells were treated with 2 Gen 2.5 cEt ASOx target MSI1 or Control Gen 2.5 ASO for 24 hours, RNA was isolated and target knockdown (MSI1 RNA level) was determined by q-RT-PCR. IC50 values for each ASO were calculated using GraphPad Prism software; each treatment condition was performed in triplicate. (FIG. 8I) Colony formation assay in MSI1 ASO-treated MIA PaCa-2 cells after weekly delivery of control or MSI1 ASOs; colonies were counted after 4 weeks; n=3 for each ASO tested. (FIG. 8J) In vivo tracking of tumor volume in MSI1 ASO treated MIA PaCa-2 tumors with intratumoral delivery of control or MSI1 ASOs every day for 5 days followed by 2 days off; n=5 for each ASO tested. Nonlinear regression was used to determine the difference in slope between Control ASO and MSI1-ASO-1 (p<0.001). (FIG. 8K) In vivo tracking of tumor volume of primary KP^f/fC tumors with intratumoral delivery of control ASO or MSI1 ASOs following tumor establishment (n=4). […]
To identify human Msi ASO inhibitors, rapid throughput screens were performed to identify effective ASOs as previously described (Wang, J. C. Y. & Dick, J. E. Cancer stem cells: lessons from leukemia. Trends in Cell Biology 15, 494-501 (2005); Reya, T., Morrison, S. J., Clarke, M. F. & Weissman, I. L. Stem cells, cancer, and cancer stem cells. Nature 414(6859):105-11 (2001); Carroll, J. B. et al. Potent and Selective Antisense Oligonucleotides Targeting Single-Nucleotide Polymorphisms in the Huntington Disease Gene/Allele-Specific Silencing of Mutant Huntingtin. Molecular Therapy 19, 2178-2185 (2009); Samuel, V. T. et al. Targeting foxo1 in mice using antisense oligonucleotide improves hepatic and peripheral insulin action. […] Gene expression was assessed with taqman probes for MSI1 and MSI2. […] Colonies were counted 21 days after the first ASO treatment. […] Tumor measurements were recorded every 3 days. […]

pancreatic cancer = conditions: cited from earlier work
[1] = system: Msi2 Reporter KPf/fC cells; assay: In vitro gemcitabine treatment with live imaging of Msi2 reporter KPf/fC cells; format: cell-based, mouse; conditions: 10 μM gemcitabine, imaged up to 48 h
[2] = system: REM2-KPf/fC pancreatic tumors; assay: In vivo drug therapy of tumor-bearing REM2-KPf/fC mice, reporter frequency by flow cytometry; parameters: species or system mouse; conditions: increasing doses (200 or 500 mg/kg IP)
Description: The development of the reporter gave us a unique opportunity to determine whether it could be used as a new image based tool to identify therapy resistant cells in pancreatic cancer. The chemotherapeutic agent gemcitabine remains the standard of care for adjuvant treatment of pancreatic cancer and is the most commonly used single agent in the treatment of advanced disease. Despite this, clinical response rates to gemcitabine are below 10% and it fails to prevent relapse after surgery in 85% of patients. Gemcitabine was delivered to tumor-bearing REM2-KPf/fC mice in vivo at increasing doses to determine the composition of residual disease. […] Importantly, these experiments identify Msi reporter positive cells as the predominant gemcitabine resistant population.
9-10 week old REM2-KP^f/fC mice were treated with Gemcitabine alone or in combination with Crizotinib or iBet762 for 6 days. On day 6, tumors were removed, dissociated (as described above), counted for total cellular content, stained with anti-mouse EpCAM antibody and analyzed for reporter expression by flow cytometry. Gemcitabine (Sigma, G6423) was resuspended in H2O at 20 mg/ml and delivered at 200 mg/kg or 500 mg/kg by IP injection twice over 6 days (on day 0 and 3). […]

blast crisis CML = assay: In vivo identification of therapy-resistant residual leukemia cells after Gleevec; parameters: species or system mouse; conditions: Gleevec 150 mg/kg daily oral gavage, NSG mice
Experimental: (FIG. 41A) The strategy used to track residual leukemia cells in vivo. KLS cells isolated from Msi2^GFP/Actb-DsRed mice were co-infected with BCR-ABL1 and NUP98-HOXA9 and subsequently transplanted into NOD-Scid IL2Rg^null (NSG) recipient mice. Fourteen days post-transplantation (D14), recipient mice were treated daily with Gleevec or vehicle alone (control) for […] and analyzed by flow cytometry on D20. (FIG. 41B) Average frequency of Msi2+ (% GFP^+) leukemia cells determined at various anatomic sites from mice with blast crisis CML (n=3 mice). (FIG. 41C) Extent of residual disease at different anatomic sites following Gleevec treatment.
To test this, REM2 mice were crossed with mice expressing dsRed under the control of a ubiquitous promoter (Vintersten et al., 2004). […]
To determine sites that harbor therapy-resistant cells, bone marrow-derived KLS cells were isolated and sorted from Msi2^GFP/Acb-DsRed mice and cultured in X-Vivo 15 media (Lonza) supplemented with 50 μM 2-mercaptoethanol, 10% (vol/vol) fetal bovine serum, SCF (100 ng/ml, R&D Systems) and TPO (20 ng/ml, R&D Systems). […] Fifteen days post-transplantation (D15), recipient mice were treated daily with Gleevec (150 mg/kg) or H2O (control) via oral gavage for five consecutive days (D15 to D19) and analyzed by flow cytometry on D20.

blast crisis CML cells = conditions: versus 2-fold difference without treatment
Description: To account for any differences in cell survival between GFP+ and GFP− cells that is solely due to differences in differentiation status, we specifically analyzed cell survival of GFP+ and GFP− leukemia cells within the lineage-negative (Lin−) fraction.
To account for any differences in cell survival between GFP^+ and GFP^− cells that is solely due to differences in differentiation status, we specifically analyzed cell survival of GFP^+ and GFP^− leukemia cells within the lineage-negative (Lin^−) fraction.
Cells were then washed and stained with antibodies against lineage markers. Apoptosis assays were performed by staining cells with Annexin-V (BD Pharmingen).

For “5′-GGCTACTACGCCGTCA-3′ (sugars from the 5' end k3 d10 k3, backbone and methylation of C not given here) [Control ASOs]”, the “MSI1 expression in cell lines after ASO treatment” value (MSI1 RNA) was “did not suppress MSI1 expression”.

With “5′-TTACATATGATACAGG-3′ (sugars from the 5' end k3 d10 k3, backbone and methylation of C not given here) [ASO-2]” the “MSI1 expression in cell lines after ASO treatment” value (MSI1 RNA) was “inhibited MSI1 expression”.

For `Nc1ccn([C@@H]2O[C@H](CO)[C@@H](O)C2(F)F)c(=O)n1` [gemcitabine, Gemcitabine], the “Patients in whom it fails to prevent relapse after surgery” value (pancreatic cancer; adjuvant) is given as 85%, the Clinical response rates (pancreatic cancer; pancreatic cancer patients) is given as “below 10%” and the “Msi2 expression in Msi2 reporter− KPf/fC cells after in vitro treatment” value [1] is given as “do not turn on Msi2 expression”. The “Effect on GFP+ (Msi2 reporter+) tumor cells” value [2] was “resistant and remained viable; also recorded: preferential survival” and the “Effect on GFP− (Msi2 reporter−) tumor cells” value [2] was “sensitive to gemcitabine and were preferentially eliminated”.

In the case of `Cc1ccc(NC(=O)c2ccc(CN3CCN(C)CC3)cc2)cc1Nc1nccc(-c2cccnc2)n1` [imatinib, imatinib mesylate], the “GFP+ leukemic cell population remaining following imatinib treatment” value (blast crisis CML; calvarium, femur, tibia, sternum or pelvis) is reported as ~37%, the “GFP+ leukemic cell population remaining following imatinib treatment” value (blast crisis CML; spleen) is reported as ~60% and the “Increase in difference in cell survival between Lin− GFP+ and Lin− GFP− cells following imatinib treatment” value (blast crisis CML cells) is reported as 3 fold.
